The structures appear in SMILES notation. pIC50: −log10 of the molar value.

The target of this assay is T1, PAR4 (Homo sapiens, UniProt Q96RI0).
T1 construct: expressed in transfected cells; host or cells: HEK293 PAR4 Clone 1.2A (BMS Arctic ID 383940)
T1 sequence (Q96RI0 18-385): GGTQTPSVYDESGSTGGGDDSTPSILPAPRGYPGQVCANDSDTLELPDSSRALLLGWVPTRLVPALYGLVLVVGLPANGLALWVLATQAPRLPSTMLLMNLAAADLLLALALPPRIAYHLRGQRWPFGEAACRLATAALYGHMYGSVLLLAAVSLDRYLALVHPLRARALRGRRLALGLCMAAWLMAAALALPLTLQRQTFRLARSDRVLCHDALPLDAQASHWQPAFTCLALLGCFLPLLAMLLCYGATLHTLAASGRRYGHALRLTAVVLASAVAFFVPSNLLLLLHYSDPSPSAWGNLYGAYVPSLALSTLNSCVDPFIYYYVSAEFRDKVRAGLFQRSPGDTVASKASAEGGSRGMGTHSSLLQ
The assay is described as follows: PAR4 FLIPR assay (antagonism of agonist peptide-induced calcium mobilization). Format: cell-based. Summed up: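 Antagonism was taken as block of calcium mobilization evoked by the agonist peptide H-Ala-Phe(4-F)-Pro-Gly-Trp-Leu-Val-Lys-Asn-[…]-NH2, added after 30 min room-temperature compound preincubation in dye-loaded PAR4-transfected HEK293 cells (endogenous PAR1). Fluorescence was read on FDSS, with compound addition alone used as the agonist counter-screen; values come from 11-point concentration-response curves.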
A general note: Calcium flux is commonly read through the fluorescence of an indicator in the cells.
For the molecule `COc1cnc2c(-c3nc4cc(F)c5c(c4s3)C[C@H](COC(=O)Nc3cnc(C)nc3)O5)cc(C)cc2n1` [Example 145, (R)-(5-fluoro-2-(2-methoxy-7-methylquinoxalin-5-yl)-7,8-dihydrobenzofuro[5,4-d]thiazo 1-7-yl)methyl (2-methylpyrimidin-5-yl)carbamate], the pIC50 was 8.74.
For `COc1cnc2c(-c3nc4cc(F)c5c(c4s3)C[C@@H](CO)O5)cc(C)cc2n1` [Example 146, (S)-(5-fluoro-2-(2-methoxy-7-methylquinoxalin-5-yl)-7,8-dihydrobenzofuro[5,4-d]thiazol-7-yl)methanol] the value was 8.96; for `COc1cnc2c(-c3nc4c(Cl)cc5c(c4s3)CC(COC(=O)Nc3ccc(C)nc3)O5)cc(CO)cc2n1` (centres unmarked) [Example 148, (4-chloro-2-(7-(hydroxymethyl)-2-methoxyquinoxalin-5-yl)-7,8-dihydrobenzofuro[5,4-d]thiazol-7-yl)methyl (6-methylpyridin-3-yl)carbamate], 9.15.
`COc1cnc2c(-c3nc4ccc5c(c4s3)C[C@@H](CO)O5)cc(C)cc2n1` [Example 149, (S)-(2-(2-methoxy-7-methylquinoxalin-5-yl)-7,8-dihydrobenzofuro[5,4-d]thiazol-7-yl)me thanol]: the negative logarithm of the IC50 (pIC50) was 8.82.
For `COc1cnc2c(-c3nc4ccc5c(c4s3)C[C@@H](COC(=O)Nc3cnc(C)nc3)O5)cc(C)cc2n1` [Example 150, (S)-(2-(2-methoxy-7-methylquinoxalin-5-yl)-7,8-dihydrobenzofuro[5,4-d]thiazol-7-yl)me thyl (2-methylpyrimidin-5-yl)carbamate] the value was 8.27.
In the case of `COc1cnc2c(-c3nc4cc(F)c5c(c4s3)C[C@@H](COC(=O)Nc3cnc(C)nc3)O5)cc(C)cc2n1` [Example 151, (S)-(5-fluoro-2-(2-methoxy-7-methylquinoxalin-5-yl)-7,8-dihydrobenzofuro[5,4-d]thiazol-7-yl)methyl (2-methylpyrimidin-5-yl)carbamate], the negative-log IC50 (pIC50) is 8.41.
Regarding `CCOc1cnc2c(-c3nc4cc(F)c5c(c4s3)C[C@@H](CO)O5)cc(C)cc2n1` [Example 152, (S)-(2-(2-ethoxy-7-methylquinoxalin-5-yl)-5-fluoro-7,8-dihydrobenzofuro[5,4-d]thiazol-7-yl)methanol], the pIC50 was 7.96.
On to `CCOc1cnc2c(-c3nc4cc(F)c5c(c4s3)C[C@H](COC(=O)Nc3cnc(C)nc3)O5)cc(C)cc2n1` [Example 153, (R)-(2-(2-ethoxy-7-methylquinoxalin-5-yl)-5-fluoro-7,8-dihydrobenzofuro[5,4-d]thiazol-7-yl)methyl (2-methylpyrimidin-5-yl)carbamate], for which the negative-log IC50 (pIC50) was 8.62.
For `COc1cnc2c(-c3nc4cc(F)c5c(c4s3)C[C@H](COC(=O)Nc3cncc(C#N)c3)O5)cc(C)cc2n1` [Example 154, (R)-(5-fluoro-2-(2-methoxy-7-methylquinoxalin-5-yl)-7,8-dihydrobenzofuro[5,4-d]thiazol-7-yl)methyl (5-cyanopyridin-3-yl)carbamate] the value was 8.20; for `COc1cnc2c(-c3nc4cc(F)c5c(c4s3)C[C@H](COC(=O)Nc3cnc(CCO)nc3)O5)cc(C)cc2n1` [Example 155, (R)-(5-fluoro-2-(2-methoxy-7-methylquinoxalin-5-yl)-7,8-dihydrobenzofuro[5,4-d]thiazo 1-7-yl)methyl (2-(2-hydroxyethyl)pyrimidin-5-yl)carbamate], 7.89.
Next, `COC(=O)[C@@H]1Cc2c(ccc3nc(-c4cc(C)cc5nc(OC)cnc45)sc23)O1` [Example 156, (S)-methyl 2-(2-methoxy-7-methylquinoxalin-5-yl)-7,8-dihydrobenzofuro[5,4-d]thiazole-7-carboxylate]: 7.55.
For `COc1cnc2c(-c3nc4cc(F)c5c(c4s3)C[C@H](COC(=O)Nc3cccnc3)O5)cc(C)cc2n1` [Example 157, (R)-(5-fluoro-2-(2-methoxy-7-methylquinoxalin-5-yl)-7,8-dihydrobenzofuro[5,4-d]thiazo 1-7-yl)methyl pyridin-3-ylcarbamate] the value was 9.10.
For the molecule `COc1cnc2c(-c3nc4cc(F)c5c(c4s3)C[C@H](COC(=O)Nc3ccc(C)nc3)O5)cc(C)cc2n1` [Example 159, (R)-(5-fluoro-2-(2-methoxy-7-methylquinoxalin-5-yl)-7,8-dihydrobenzofuro[5,4-d]thiazol-7-yl)methyl (6-methylpyridin-3-yl)carbamate], the pIC50 was 9.22.
For `COc1cnc2c(-c3nc4cc(F)c5c(c4s3)C[C@H](COC(=O)Nc3ccnc(C)c3)O5)cc(C)cc2n1` [Example 160, (R)-(5-fluoro-2-(2-methoxy-7-methylquinoxalin-5-yl)-7,8-dihydrobenzofuro[5,4-d]thiazol-7-yl)methyl (2-methylpyridin-4-yl)carbamate] the value was 9.22; for `COc1cnc2c(-c3nc4cc(F)c5c(c4s3)C[C@H](COC(=O)Nc3cncc(F)c3)O5)cc(C)cc2n1` [Example 161, (R)-(5-fluoro-2-(2-methoxy-7-methylquinoxalin-5-yl)-7,8-dihydrobenzofuro[5,4-d]thiazo 1-7-yl)methyl (5-fluoropyridin-3-yl)carbamate], 8.96.
Take `COc1cnc2c(-c3nc4cc(F)c5c(c4s3)C[C@H](COC(=O)Nc3cccc(C#N)c3)O5)cc(C)cc2n1` [Example 162, (R)-(5-fluoro-2-(2-methoxy-7-methylquinoxalin-5-yl)-7,8-dihydrobenzofuro[5,4-d]thiazol-7-yl)methyl (3-cyanophenyl)carbamate]: the pIC50 is 9.15.
Next, `COc1cc(NC(=O)OC[C@H]2Cc3c(c(F)cc4nc(-c5cc(C)cc6nc(OC)cnc56)sc34)O2)ccn1` [Example 163, (R)-(5-fluoro-2-(2-methoxy-7-methylquinoxalin-5-yl)-7,8-dihydrobenzofuro[5,4-d]thiazo 1-7-yl)methyl (2-methoxypyridin-4-yl)carbamate]: 6.80; `COc1ccc(NC(=O)OC[C@H]2Cc3c(c(F)cc4nc(-c5cc(C)cc6nc(OC)cnc56)sc34)O2)cn1` [Example 164, (R)-(5-fluoro-2-(2-methoxy-7-methylquinoxalin-5-yl)-7,8-dihydrobenzofuro[5,4-d]thiazo 1-7-yl)methyl (6-methoxypyridin-3-yl)carbamate]: 8.80.
For `COc1cnc2c(-c3nc4cc(F)c5c(c4s3)C[C@H](COC(=O)Nc3ccc(OCCO)nc3)O5)cc(C)cc2n1` [Example 165, (R)-(5-fluoro-2-(2-methoxy-7-methylquinoxalin-5-yl)-7,8-dihydrobenzofuro[5,4-d]thiazo 1-7-yl)methyl (6-(2-hydroxyethoxy)pyridin-3-yl)carbamate] the value was 9.00.
On to `COc1cnc2c(-c3nc4cc(F)c5c(c4s3)C[C@H](COC(=O)Nc3ccc(OCC(F)(F)CO)nc3)O5)cc(C)cc2n1` [Example 166, (R)-(5-fluoro-2-(2-methoxy-7-methylquinoxalin-5-yl)-7,8-dihydrobenzofuro[5,4-d]thiazo 1-7-yl)methyl (6-(2,2-difluoro-3-hydroxypropoxy)pyridin-3-yl)carbamate], for which the pIC50 is 8.96.
For `COc1cnc2c(-c3nc4cc(F)c5c(c4s3)CC(C)(CO)O5)cc(C)cc2n1` (centres unmarked) [Example 167, (5-fluoro-2-(2-methoxy-7-methylquinoxalin-5-yl)-7-methyl-7,8-dihydrobenzofuro[5,4-d]thiazol-7-yl)methanol] the value was 8.51; for `COc1cncc(NC(=O)OC[C@H]2Cc3c(c(F)cc4nc(-c5cc(C)cc6nc(OC)cnc56)sc34)O2)c1` [Example 168, (R)-(5-fluoro-2-(2-methoxy-7-methylquinoxalin-5-yl)-7,8-dihydrobenzofuro[5,4-d]thiazo 1-7-yl)methyl (5-methoxypyridin-3-yl)carbamate], 8.30.
Regarding `COc1cnc2c(-c3nc4cc(F)c5c(c4s3)C[C@H](COC(=O)Nc3ccc(C(=O)N4CCOCC4)cc3)O5)cc(C)cc2n1` [Example 169, (R)-(5-fluoro-2-(2-methoxy-7-methylquinoxalin-5-yl)-7,8-dihydrobenzofuro[5,4-d]thiazol-7-yl)methyl (4-(morpholine-4-carbonyl)phenyl)carbamate], the pIC50 is 8.18.
For `COc1cnc2c(-c3nc4cc(F)c5c(c4s3)C[C@H](COC(=O)Nc3ccc(F)nc3)O5)cc(C)cc2n1` [Example 170, (R)-(5-fluoro-2-(2-methoxy-7-methylquinoxalin-5-yl)-7,8-dihydrobenzofuro[5,4-d]thiazo 1-7-yl)methyl (6-fluoropyridin-3-yl)carbamate], the pIC50 was 8.24.
`COc1cnc2c(-c3nc4ccc5c(c4s3)CC(C)(CO)O5)cc(C)cc2n1` (centres unmarked) [Example 171, (2-(2-methoxy-7-methylquinoxalin-5-yl)-7-methyl-7,8-dihydrobenzofuro[5,4-d]thiazol-7-yl)methanol]: the negative-log IC50 (pIC50) is 7.35.
As to `COc1cnc2c(-c3nc4cc(F)c5c(c4s3)C[C@@](C)(CO)O5)cc(C)cc2n1` [Example 172, (S)-(5-fluoro-2-(2-methoxy-7-methylquinoxalin-5-yl)-7-methyl-7,8-dihydrobenzofuro[5,4-d]thiazol-7-yl)methanol], the pIC50 is 8.96.

As a reminder, the pIC50 is −log10 of the IC50, conventionally taken in molar units.

For the origin of these results see patent US11932658B2 (BRISTOL-MYERS SQUIBB COMPANY, priority 2016, dated 2024).
